Inhibition and EC50 data for 24 compounds are collected here from patent US8765946B2, “Methods of preparing and using quinazoline and quinoline derivatives” (priority 2006, dated 2014).

Test [1] has as its target T1, A431 cells EGFR-TK phosphorylation stimulated by EGF (Homo sapiens, UniProt P00533).
T1 construct: against A431 cells EGFR-TK; endogenous in cells; host or cells: A431 cells
Briefly: Inhibition of cellular EGFR-TK phosphorylation stimulated by EGF in A431 cells. The following applies: for inhibition at 3 µM: A-431, concentration of 3 μM, A431 cells, EGF stimulated, one-time measurement at a single concentration (preliminary selection), NA = No activity, read-out: Inhibition Percent (%); for EC50: A431 cells EGFR-TK phosphorylation stimulated by EGF (Table 4). The format is cell-based. As for the experimental part: Inhibition Experiment of Cellular Epidermal Growth Factor Receptor Tyrosine Kinase
1) A431 cells were cultured in a medium which was prepared by adding 10% FCS into another medium comprising 50% DMEM and 50% F12.
2) A431 cells grown in six-well plates were cultured in a serum-free medium for 24 hours. During the 24 hour period the medium was replenished once after 12 hours.
3) A solution containing a compound to be assessed was added the A431 cells and the cells were cultured for 2 hours, supplemented twice by a medium free of the compound, and then EGF (100 ng/well) was added, and cultured for 5 minutes.
4) A431 cell homogenate was prepared by Laemili buffer which comprised 2% sodium dodecyl sulfonate (SDS), 5% 2-mercaptoethanol, 10% glycerol and 5 mM Tris (pH 6.8).
5) The A431 cell homogenate was heated for 5 minutes at 100° C.
6) Proteins in the A431 cell homogenates were separated by PAGE and transferred onto a nitrocellulose membrane, and an infrared reading was obtained.

The subject of a further test is A431 cells. The test is described as follows: A431 cell growth inhibition assay (MTT assay). Format: cell-based. The following applies: Homo sapiens, A-431, concentration of 3 μM, 72 hours, read-out: Inhibition Percent (%). As to the method: A431 Cell Growth Inhibition Assay (MTT Assay)
A431, an epidermoid carcinoma cell line; The Cell Bank, Committee on Type Culture Collection Chinese Academy of Science, Shanghai.
Mix prepared medium DMEM and F12 in the proportion of 1:1, then add FBS to a final concentration of 10%.
Dissolved the dried compound sample with 100% DMSO to 2 mM. Then diluted the dissolved compound to 20 μM with cell complete growth medium.
Prior to the assay, cultured the A431 to logarithmic phase, and then removed medium from cell monolayers and wash the cells once with sterilized PBS. Aspriated the PBS and added 2 mL trypsin solution to cover the cell growth surface, removed 1 mL trypsin solution after soaking about 1 minute. Transferred the cell-culture plate to CO2 incubator; incubated at 37° C. for 8 minutes to allow cells to dissociate. After the cells detached, added 4 mL complete growth medium containing FBS with pipette to disperse them off and mixed gently to obtain a homogeneous cell suspension. Aspirated some of the cell suspension to a sterilized polypropylene tube, and determined the cell concentration by counting in a hematocytometer chamber under a microscope. Adjusted the cell concentration with growth medium to obtain 2.5×10^4 cells per milliliter.
Added 100 μL adjusted cell suspension to the 96-well cell-culture plate and occasionally mixed the cell suspension during the seeding process. After seeding cells, incubated the plate at 37° C. overnight with 5% CO2 in the CO2 incubator for cell attachment.
After the cell attachment, added 100 μL prepared compound solutions to the corresponding wells (add PBS to the ambient wells of the plate). The final compound concentrations ranged from 10 μM to 1.52 nM. Incubated the plate at 37° C. with 5% CO2 for 72 hours in the CO2 incubator.
After the exposure to the compound, removed the cell culture supernatant. Then added 100 μL 0.5 mg/mL MTT solution which dissolved in the growth medium without FBS. Incubated the plate at 37° C. with 5% CO2 for another 4 hours to allow the MTT reaction to proceed.
After the MTT reaction, discarded the MTT reaction solution. Added 100 μL DMSO to each well, and the plate was agitated on the plate shaker for several minutes to dissolve the formazan. Then, detected the absorbance at 490 nm using microplate reader.

T1 sequence (P00533 25-1210): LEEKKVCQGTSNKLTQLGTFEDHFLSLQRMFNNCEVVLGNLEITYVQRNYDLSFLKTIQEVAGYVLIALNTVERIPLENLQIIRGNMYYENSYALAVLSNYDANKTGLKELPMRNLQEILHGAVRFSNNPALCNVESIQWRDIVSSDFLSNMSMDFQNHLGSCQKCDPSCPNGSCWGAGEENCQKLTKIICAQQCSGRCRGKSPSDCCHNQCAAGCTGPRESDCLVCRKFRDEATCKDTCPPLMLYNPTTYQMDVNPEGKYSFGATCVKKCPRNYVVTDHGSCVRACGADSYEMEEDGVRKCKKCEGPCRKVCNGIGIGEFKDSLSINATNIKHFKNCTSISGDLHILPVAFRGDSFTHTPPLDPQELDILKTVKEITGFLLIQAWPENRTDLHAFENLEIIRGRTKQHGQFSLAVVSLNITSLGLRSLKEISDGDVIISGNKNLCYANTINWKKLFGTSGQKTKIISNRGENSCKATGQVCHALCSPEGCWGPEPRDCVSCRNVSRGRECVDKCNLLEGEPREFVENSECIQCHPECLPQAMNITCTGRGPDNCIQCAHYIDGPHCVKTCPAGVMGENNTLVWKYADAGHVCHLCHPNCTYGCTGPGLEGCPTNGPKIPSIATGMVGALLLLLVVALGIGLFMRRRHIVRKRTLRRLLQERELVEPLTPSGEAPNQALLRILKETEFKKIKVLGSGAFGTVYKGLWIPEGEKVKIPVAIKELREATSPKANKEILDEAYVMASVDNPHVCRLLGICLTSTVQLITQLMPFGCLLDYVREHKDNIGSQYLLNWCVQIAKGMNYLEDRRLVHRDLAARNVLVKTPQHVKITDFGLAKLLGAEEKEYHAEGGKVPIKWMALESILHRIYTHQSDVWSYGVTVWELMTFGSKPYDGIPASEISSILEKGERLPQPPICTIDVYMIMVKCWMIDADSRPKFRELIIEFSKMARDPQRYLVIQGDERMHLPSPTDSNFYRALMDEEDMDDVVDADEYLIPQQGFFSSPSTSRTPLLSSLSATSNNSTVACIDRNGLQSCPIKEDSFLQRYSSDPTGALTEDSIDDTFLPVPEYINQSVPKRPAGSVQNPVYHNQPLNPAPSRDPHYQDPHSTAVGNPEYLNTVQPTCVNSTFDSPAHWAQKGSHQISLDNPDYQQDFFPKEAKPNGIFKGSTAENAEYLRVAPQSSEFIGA

As usually defined, the inhibition is the relative decrease from the control value, in per cent. `C#Cc1cccc(Nc2ncnc3ccc(NC(=O)C=C4CCN(CC)CC4)cc23)c1` [Example 5, 2-(1-Ethylpiperidin-4-ylidene)-N-(4-(3-ethynylphenylamino)quinazolin-6-yl)acetamide]: the inhibition at 3 µM in test [1] came to 73%.
On the same count and under the same terms, as for `C#Cc1cccc(Nc2ncnc3ccc(NC(=O)C=C4CCN(Cc5ccccc5)CC4)cc23)c1` [Example 6, 2-(1-benzylpiperidin-4-ylidene)-N-(4-(3-ethynylphenylamino)quinazolin-6-yl)acetamide], the figure is 24%.
Still for that read-out and setting: the figure for `O=C(C=C1CCNCC1)Nc1cc2c(Nc3cccc(Cl)c3)ncnc2cc1F` [Example 30, N-(4-(3-chlorophenylamino)-7-fluoroquinazolin-6-yl)-2-(piperidin-4-ylidene)acetamide] is 55%; for `O=C(C=C1CCNCC1)Nc1ccc2ncnc(Nc3ccccc3)c2c1` [Example 31, N-(4-(phenylamino)quinazolin-6-yl)-2-(piperidin-4-ylidene)acetamide] it is 33%.
The same measure, in the same setting: as for `C[C@@H](Nc1ncnc2ccc(NC(=O)C=C3CCNCC3)cc12)c1ccccc1` [Example 35, N-(4-((R)-1-phenylethylamino)quinazolin-6-yl)-2-(piperidin-4-ylidene)acetamide], the figure is 23%.
Turning to `O=C(C=C1CCNCC1)Nc1cc2c(Nc3cccc(Br)c3)ncnc2cc1OCCCN1CCOCC1` [Example 37, N-(4-(3-bromophenylamino)-7-(3-morpholinopropoxy)quinazolin-6-yl)-2-(piperidin-4-ylidene)acetamide], the inhibition at 3 µM in test [1] worked out at 82%.
On the same count and under the same terms, as for `COCCOc1cc2ncnc(Nc3cccc(Br)c3)c2cc1NC(=O)C=C1CCNCC1` [Example 40, N-(4-(3-bromophenylamino)-7-(2-methoxyethoxy)quinazolin-6-yl)-2-(piperidin-4-ylidene)acetamide], the figure is 89%.
A word on the EC50: it is the concentration that produces a half-maximal response. Low readings indicate an effect from little substance, high ones a need for much substance. Compound `COCCOc1cc2ncnc(Nc3cccc(Br)c3)c2cc1NC(=O)C=C1CCN(C)CC1` [Example 65, N-(4-(3-bromophenylamino)-7-(2-methoxyethoxy)quinazolin-6-yl)-2-(1-methylpiperidin-4-ylidene)acetamide] registered a half-maximal effective concentration (EC50) in test [1] of 230 nM. This lies in the sub-micromolar range.
As to `CCOc1cc2ncnc(Nc3ccc(OCc4ccccn4)c(Cl)c3)c2cc1NC(=O)C=C1CCNCC1` [Example 107, N-(4-(3-chloro-4-(pyridin-2-ylmethoxy)phenylamino)-7-ethoxyquinazolin-6-yl)-2-(piperidin-4-ylidene)acetamide], in test [1], the inhibition at 3 µM was 52%.
Take `COc1cc2ncnc(Nc3ccc(Oc4ccccc4)c(OC)c3)c2cc1NC(=O)C=C1CCNCC1` [Example 110, N-(7-methoxy-4-(3-methoxy-4-phenoxyphenylamino)quinazolin-6-yl)-2-(piperidin-4-ylidene)acetamide]: in test [1], the concentration giving a half-maximal response (EC50) was 900 nM and the inhibition at 3 µM worked out at 59%.
Consider `N#Cc1cnc2ccc(N)cc2c1Nc1ccc(F)c(Cl)c1` [Example 132, 6-amino-4-(3-chloro-4-fluorophenylamino)quinoline-3-carbonitrile], for which the inhibition at 3 µM in test [1] stood at 64%.
For the compound `COCCOc1cc2ncc(C#N)c(Nc3ccc(OCc4cccc(F)c4)c(Cl)c3)c2cc1N` [Example 141, 4-(4-(3-fluorobenzyloxy)-3-chlorophenylamino)-6-amino-7-(2-methoxyethoxy)quinoline-3-carbonitrile], in test [1], the EC50 was found to be 280 nM and the inhibition at 3 µM is 91%.
With `COc1cc2ncc(C#N)c(Nc3ccc(OCc4cccc(F)c4)c(Cl)c3)c2cc1NC(=O)C=C1CCNCC1` [Example 144, N-(4-(4-(3-fluorobenzyloxy)-3-chlorophenylamino)-3-cyano-7-methoxyquinolin-6-yl)-2-(piperidin-4-ylidene)acetamide], in test [1], the inhibition at 3 µM is 89%.
As for `CCOc1cc2ncc(C#N)c(Nc3ccc(F)c(Cl)c3)c2cc1NC(=O)C=C1CCN(CC)CC1` [Example 178, N-(4-(3-chloro-4-fluorophenylamino)-3-cyano-7-ethoxyquinolin-6-yl)-2-(1-ethylpiperidin-4-ylidene)acetamide], in the test with A431 cells, the inhibition at 3 µM came out at 88%.
Same read-out and setting: the figure for `CCCN1CCC(=CC(=O)Nc2cc3c(Nc4ccc(F)c(Cl)c4)c(C#N)cnc3cc2OCC)CC1` [Example 179, N-(4-(3-chloro-4-fluorophenylamino)-3-cyano-7-ethoxyquinolin-6-yl)-2-(1-proplpiperidin-4-ylidene)acetamide] is 90%.
The same measure, in the same setting: as for `COCCOc1cc2ncc(C#N)c(Nc3ccc(F)c(Cl)c3)c2cc1NC(=O)C=C1CCN(C)CC1` [Example 180, N-(4-(3-chloro-4-fluorophenylamino)-3-cyano-7-(2-methoxyethoxy)quinolin-6-yl)-2-(1-methylpiperidin-4-ylidene)acetamide], the figure is 92%; as for `CCN1CCC(=CC(=O)Nc2cc3c(Nc4ccc(F)c(Cl)c4)c(C#N)cnc3cc2OCCOC)CC1` [Example 181, N-(4-(3-chloro-4-fluorophenylamino)-3-cyano-7-(2-methoxyethoxy)quinolin-6-yl)-2-(1-ethylpiperidin-4-ylidene)acetamide], 94%.
In the case of `CCCN1CCC(=CC(=O)Nc2cc3c(Nc4ccc(F)c(Cl)c4)c(C#N)cnc3cc2OCCOC)CC1` [Example 182, N-(4-(3-chloro-4-fluorophenylamino)-3-cyano-7-(2-methoxyethoxy)quinolin-6-yl)-2-(1-propylpiperidin-4-ylidene)acetamide], the inhibition at 3 µM in the test with A431 cells stood at 90%.
The same measure, in the same setting: the figure for `COCCOc1cc2ncc(C#N)c(Nc3ccc(F)c(Cl)c3)c2cc1NC(=O)C=C1CCN(CCOC)CC1` [Example 183, N-(4-(3-chloro-4-fluorophenylamino)-3-cyano-7-(2-methoxyethoxy)quinolin-6-yl)-2-(1-(2-methoxyethyl)piperidin-4-ylidene)acetamide] is 90%; for `C#Cc1cccc(Nc2c(C#N)cnc3cc(OCCOC)c(NC(=O)C=C4CCN(C)CC4)cc23)c1` [Example 190, N-(3-cyano-4-(3-ethynylphenylamino)-7-(2-methoxyethoxy)quinolin-6-yl)-2-(1-methylpiperidin-4-ylidene)acetamide] it is 91%; for `C#Cc1cccc(Nc2c(C#N)cnc3cc(OCCOC)c(NC(=O)C=C4CCN(CC)CC4)cc23)c1` [Example 191, N-(3-cyano-4-(3-ethynylphenylamino)-7-(2-methoxyethoxy)quinolin-6-yl)-2-(1-ethylpiperidin-4-ylidene)acetamide] it is 93%.
The same measure, in the same setting: as for `C#Cc1cccc(Nc2c(C#N)cnc3cc(OCCOC)c(NC(=O)C=C4CCN(CCC)CC4)cc23)c1` [Example 192, N-(3-cyano-4-(3-ethynylphenylamino)-7-(2-methoxyethoxy)quinolin-6-yl)-2-(1-propylpiperidin-4-ylidene)acetamide], the figure is 93%; as for `C#Cc1cccc(Nc2c(C#N)cnc3cc(OCCOC)c(NC(=O)C=C4CCN(CCOC)CC4)cc23)c1` [Example 193, N-(3-cyano-4-(3-ethynylphenylamino)-7-(2-methoxyethoxy)quinolin-6-yl)-2-(1-(2-methoxyethyl)piperidin-4-ylidene)acetamide], 90%; as for `COCCOc1cc2ncc(C#N)c(Nc3cccc(Br)c3)c2cc1NC(=O)C=C1CCN(C)CC1` [Example 194, N-(4-(3-bromophenylamino)-3-cyano-7-(2-methoxyethoxy)quinolin-6-yl)-2-(1-methylpiperidin-4-ylidene)acetamide], 89%.
